How the values were obtained:
[1] = tested on: HEY ovarian cancer cell line; assay: Cytotoxicity MTT assay, HEY; assay type: cell-based, human; conditions: Homo sapiens; 20 μM, HEY, 72 h MTT; read-out: % inhibition of cell growth at 20 μM, HEY
Source text: (§1) Cell Culture. Human breast cancer cells (MCF-7, αvβ3—, overexpressed wild-type p53, ER+; MDA-MB 468, p53 mutant, ER+; and MDA-MB-435, αvβ3+, p53 mutant, ER−) and non-small cell lung cancer cells H1975 were obtained from the American Type Cell Culture (Rockville, Md. Q4). The HEY human ovarian carcinoma cell line naturally resistant to cisplatin (CDDP) was kindly provided by Dr. Dubeau (University of Southern California Norris Cancer Center). Cells were maintained as monolayer cultures in RPMI 1640 supplemented with 10% fetal bovine serum (Gemini-Bioproducts, Woodland, Calif.) and 2 mmol/L L-glutamine at 37° C. in a humidified atmosphere of 5% CO2. To remove the adherent cells from the flask for passaging and counting, cells were washed with PBS without calcium or magnesium, incubated with a small volume of 0.25% trypsin-EDTA solution (Sigma, St. Louis, Mo.) for 5 to 10 minutes, and washed with culture medium and centrifuged. All experiments were done using cells in exponential cell growth.
(§2) Cytotoxicity Assay. Cytotoxicity was assessed by 3-(4,5-dimethylthiazol-2-yl)-2,5-diphenyltetrazolium bromide (MTT) assay as previously described.^41, 54 Briefly, cells were seeded in 96-well microtiter plates and allowed to attach. Cells were subsequently treated with a continuous exposure to the corresponding drug for 72 hours. An MTT solution (at a final concentration of 0.5 mg/mL) was added to each well and cells were incubated for 4 hours at 37° C. After removal of the medium, DMSO was added and the absorbance was read at 570 nm. All assays were done in triplicate. The IC50 was then determined for each drug from a plot of log (drug concentration) versus percentage of cell kill.
(§3) Cytotoxicity of Selected Compounds in a Panel of Cancer Cell lines. Initially, we tested all compounds in two breast cancer cell lines MDA-MB-435 and MCF7 with high and low αvβ3 expression as well as in HEY ovarian cancer cell line naturally resistant to cisplatin. […] We observed a remarkable specificity for some of the compounds against these cells. […] Considering the fact that αvβ3 mediates migration, attachment and apoptosis of cancer cells, the combination of these novel high affinity antagonists with conventional cytotoxic drugs should show improved therapeutic benefits without additional toxicity.
(§4) NVX-188 was tested for cytotoxicity by MTT assays in two breast cancer cell lines, MDA-MB-435 with high αvβ3 integrin expression and MCF7 with low αvβ3 integrin expression, and an ovarian cancer cell line, HEY, which was used to test for cell growth inhibition evidence. NVX-188 was further evaluated in a lung cancer cell line, NCI-H1975, and a mouse fibroblast, NIH3T3. NVX-188 was not cytotoxic at the highest dose level tested (20 uM).

[2] = tested on: MCF7 breast cancer cell line; assay: Cytotoxicity MTT assay, MCF7; assay type: cell-based, human; conditions: Homo sapiens; 20 μM, MCF7, 72 h MTT; read-out: % inhibition of cell growth at 20 μM, MCF7
Source text: as §1, §2, §3, §4

[3] = tested on: MDA-MB-435 breast cancer cell line; assay: Cytotoxicity MTT assay, MDA-MB-435; assay type: cell-based, human; conditions: Homo sapiens; 20 μM, MDA-MB-435, 72 h MTT; read-out: % inhibition of cell growth at 20 μM, 435
Source text: as §1, §2, §3, §4

αvβ3 integrin = target: T1, αvβ3 integrin (Homo sapiens, UniProt P05106+P06756); assay: Receptor binding assay, competitive binding with 125I-labeled echistatin on the surface of NCI-H1975 cells; conditions: 125I-echistatin competition, NCI-H1975 cells; read-out: αvβ3 binding affinity (IC50)
T1 construct: endogenous in cells; host or cells: NCI-H1975 cells (non-small cell lung cancer), whole cells in suspension
Protocol: Receptor Binding Assay. […] 96-Well multiscreen DV plate (filter pore size: 0.65 μm, Millipore, Billerica, Mass.) was incubated with ^125I-echistatin (50,000 cpm/well) in the presence of increasing concentrations of αvβ3 antagonists. The total incubation volume was adjusted to 200 μL. After the cells were incubated for 3 h at room temperature, the plate was filtered through multiscreen vacuum manifold and washed twice with cold binding buffer. The hydrophilic PVDF filters were collected, and the radioactivity was determined using NaI(Tl) gamma counter (Packard, Meriden, Conn.). The best-fit IC50 values were calculated by fitting the data by nonlinear regression using GraphPad Prism (GraphPad Software, Inc., San Diego, Calif.). Experiments were carried out with triplicate samples.
αvβ3 Binding. Receptor binding affinity of all compounds on the surface of non-small cell lung cancer NCI-H1975 cells was determined in competitive binding experiments using ^125I-labeled echistatin as radioligand and the results are presented in Table 3. […] These compounds represent a novel set of antagonists with diverse structural scaffolds. […] This is an important feature considering the highly electrostatic nature of the RGD peptide binding region of αvβ3. The RGD peptide forms strong electrostatic interactions through its two charged ends with αvβ3 in the αvβ3-cyclic RGD peptide complex crystal structure. Compounds AV3, AV27, and AV32 broadly fall into a RGD mimetic antagonist category, since they have a carboxylate group or amine/amide group, at either ends that can establish similar electrostatic interactions with αvβ3. Additionally, presence of several hydrophilic functional groups on these compounds favors their interaction with the highly electrostatic region of the RGD binding site of αvβ3. Given these interesting structural features, we tested additional structurally close analogues of AV27 and AV32. However, substructure search queries using the core scaffolds of these compounds in our in-house databases yield no close analogues. Structure-activity studies around the core scaffolds of these two compounds might be an alternative option to further optimize their binding affinity towards αvβ3. […] We carried out a limited structure-activity relationship (SAR) analysis on compound AV26 by testing compounds AV34-AV38 in our binding assay (Table 3). The substructure search using the core scaffold of AV26 as a search query retrieved few compounds from our in-house database of 359,224 compounds. The analogues AV34-AV38 were purchased from Chemical Diversity (San Diego, Calif.) and screened for their αvβ3 binding affinity. […] Studies are also underway to selectively deliver cytotoxic agents such as paclitaxel to αvβ3 overexpressing cancers through covalent conjugation.
Receptor binding affinity of NVX-188 was determined through a competitive binding experiment using ^125I-radiolabeled echistatin on NCI-H1975 cells. Increasing concentrations of NVX-188 were added with a fixed amount of echistatin to determine the concentration of NVX-188 that prevents 50% of the echistatin from binding to αvβ3 integrin on the cell surface (i.e., IC50).

[4] = Cytotoxicity MTT assay, HEY; assay type: cell-based, human; conditions: human, HEY ovarian carcinoma cells; HEY, Table 5
Source text: as §1, §2, §3, §4

[5] = Cytotoxicity MTT assay, MCF7; assay type: cell-based, human; conditions: human, MCF-7 breast cancer cells; MCF-7, Table 5
Source text: as §1, §2, §3, §4

[6] = Cytotoxicity MTT assay, NCI-H1975; assay type: cell-based, human; conditions: human, NCI-H1975 non-small cell lung cancer cells; NCI-H1975, Table 5
Source text: as §1, §2, §3, §4

[7] = Cytotoxicity MTT assay, NIH3T3; assay type: cell-based, mouse; conditions: mouse, NIH3T3 fibroblasts; NIH3T3, Table 5
Protocol: as §2, §3, §4

[8] = Cytotoxicity MTT assay, MDA-MB-435; assay type: cell-based, human; conditions: human, MDA-MB-435 breast cancer cells; MDA-MB-435, Table 5
Source text: as §1, §2, §3, §4

IC50 (αvβ3 integrin) | SMILES | inhibition at 20 µM [1] | inhibition at 20 µM [2] | inhibition at 20 µM [3] | IC50 at 72 h [4] | IC50 at 72 h [5] | IC50 at 72 h [6] | IC50 at 72 h [7] | IC50 at 72 h [8]
 | COc1cc(OC)c(/C=C2\S/C(=N/c3ccc(C(=O)O)cc3)N(C)C2=O)cc1Br [AV36] | 4% | 29% | 16% |  |  |  |  | 
 | CCC(=O)Nc1ccc(C(=O)Nc2ccc(OCC(=O)O)cc2)cc1 [AV28] | 34% | 32% | 32% |  |  |  |  | 
 | Nc1nc(O)c2cc(CSc3ccc(C(=O)NC(CCC(=O)O)C(=O)O)cc3)ccc2n1 (stereo not drawn) [AV7] | 0% | 22% | 5% |  |  |  |  | 
0.605 µM | CS(=O)(=O)Nc1ccc(C2=NN(C(=O)CCCC(=O)O)C(c3ccco3)C2)cc1 (stereo not drawn) [AV32] | 18% | 26% | 0% | > 20 µM | > 20 µM | > 20 µM | > 20 µM | > 20 µM
 | Nc1nc(O)c2cc(COc3ccc(C(=O)NC(CCC(=O)O)C(=O)O)cc3)ccc2n1 (stereo not drawn) [AV8] | 6% | 24% | 12% |  |  |  |  | 
0.018 µM | Cc1ccc(NC(=O)CN2C(=O)N/C(=C\c3cccn3-c3cccc(C(=O)O)c3)C2=O)cc1 [AV27] | 5% | 0% | 0% | > 20 µM | > 20 µM | > 20 µM | > 20 µM | > 20 µM
 | O=C(O)c1ccc(-c2ccc(/C=N/Nc3nc(Nc4ccccc4)nc(Nc4ccccc4)n3)o2)cc1 [AV10] | 73% | 62% | 93% | 21 ± 3 µM | > 20 µM |  |  | 18 ± 9 µM
 | CN(Cc1cnc2nc(N)nc(N)c2n1)c1ccc(C(=O)NC(CCCCN)C(=O)O)cc1 (stereo not drawn) [AV4] | 0% | 30% | 16% |  |  |  |  | 
 | COc1cc(/C=N/Nc2nc(Nc3ccc(F)cc3)nc(N3CCCCC3)n2)ccc1OCC(=O)O [AV11] | 0% | 49% | 53% |  |  |  |  | 
 | O=C(O)COc1ccc(/C=N/NC(=O)c2ccc(O)cc2)cc1OCC(=O)O [AV29] | 9% | 21% | 14% |  |  |  |  | 
 | CCC(=O)Nc1nc(C)c(-c2csc(Nc3cccc(C(=O)O)c3)n2)s1 [AV31] | 62% | 44% | 21% |  |  |  |  | 
 | COc1cc(/C=C2/SC(N(C)c3ccc(O)cc3)=NC2=O)ccc1OCC(=O)O [AV25] | 12% | 29% | 26% |  |  |  |  | 
 | CC(=O)Nc1nc(O)c2nc(CCN(C)c3ccc(C(=O)O)cc3)cnc2n1 [AV5] | 0% | 0% | 49% |  |  |  |  | 
 | CC1=NN(c2ccc(C(=O)O)cc2)C(=O)/C1=C/c1ccc(-c2ccc(S(N)(=O)=O)cc2)o1 [AV19] | 6% | 66% | 30% | > 20 µM | 19 ± 4 µM |  |  | > 20 µM
 | CCn1cc(C(=O)O)c(=O)c2cc(F)c(N3CCN(S(=O)(=O)c4ccc(NC(C)=O)cc4)CC3)cc21 [AV22] | 0% | 7% | 25% |  |  |  |  | 
 | CCOc1cc(/C=N/Nc2nc(Nc3ccccc3)nc(N3CCCCC3)n2)ccc1OCC(=O)O [AV14] | 0% | 3% | 70% |  |  |  |  | 
 | Nc1ccc(C(=O)Nc2nc3ccc(C(=O)O)cc3s2)cc1 [AV9] | 0% | 36% | 19% |  |  |  |  | 
 | Cc1nnc(N/N=C/c2ccc(OCC(=O)O)cc2)nc1O [AV20] | 0% | 27% | 11% |  |  |  |  | 
 | CN(C1=NC(=O)/C(=C\c2ccc(OCC(=O)O)cc2)S1)c1ccc(O)cc1 [AV24] | 19% | 21% | 9% |  |  |  |  | 
 | Nc1nc(O)c2nc3c(nc2n1)C(=O)N(c1ccc(C(=O)NC(CCC(=O)O)C(=O)O)cc1)C3 (stereo not drawn) [AV6] | 0% | 19% | 12% |  |  |  |  | 
 | CC1=C(C#N)c2nc(N)c(C#N)c(C)c2/C1=C/c1ccc(-c2ccc(Cl)c(C(=O)O)c2)o1 [AV15] | 14% | 14% | 33% |  |  |  |  | 
 | Cc1ccnc(NS(=O)(=O)c2ccc(NC(=O)c3ccc(C(=O)O)cc3C(=O)O)cc2)n1 [AV18] | 0% | 11% | 18% |  |  |  |  | 
 | O=C(CCCCn1cnc2c(S)ncnc21)Nc1ccc(C(=O)O)c(O)c1 [AV2] | 0% | 1% | 1% |  |  |  |  | 
 | COc1cc(/C=C2\NC(=O)N(CC(=O)Nc3ccc(C)cc3)C2=O)ccc1OCc1cccc(C(=O)O)c1 [AV21] | 0% | 43% | 26% |  |  |  |  | 
 | O=C(CCCCn1cnc2c(S)ncnc21)Nc1ccc(C(=O)O)cc1 [AV1] | 14% | 0% | 0% |  |  |  |  | 
 | COc1cc(/C=C2\S/C(=N/c3cccc(C(=O)O)c3)N(C)C2=O)cc(Cl)c1O [AV37] | 0% | 9% | 3% |  |  |  |  | 
 | O=C(CSc1nnnn1-c1ccc(O)cc1)NCc1cccc(C(=O)O)c1 [AV23] | 0% | 34% | 9% |  |  |  |  | 

From patent US7928113B2, “Integrin-binding small molecules” (University of Southern California, priority 2005, dated 2011)
